Patent publication US9321722B2, “Bis-indolic derivatives, their uses in particular as antibacterials” (UNIVERSITE JOSEPH FOURIER, priority 2011, dated 2016)
In brackets after ≈: the same amount, converted by molar mass.

Experiments:
Assay in all cases: MIC microdilution (Table I-1)
[1] = tested on: S. aureus ATCC 106414 (VISA); assay type: cell-based, Staphylococcus aureus; details: Staphylococcus aureus, read after 18 hours, read-out: MIC
Procedure: (§1) The microdilution method recommended by the Clinical and Laboratory Standard Institute [M07-A8, Vol. 29, N^o 2] was used. The activity of indolic compounds was tested against 29 bacterial strains belonging to 17 different species and 12 different genera (Staphylococcus, Streptococcus, Enterococcus, Listeria, Bacillus, Haemophilus, Escherichia, Klebsiella, Enterobacter, Serratia, Pseudomonas, and Acinetobacter). Bacterial inocula were prepared in Mueller Hinton broth (MH2, bioMerieux, Marcy L'Etoile, France), supplemented with 10% sheep blood for fastidious species (i.e., Streptococcus pneumoniae and Haemophilus influenzae). They were dispensed in 96 well microtiter plates (5×10^5 CFU/ml of final inoculum). Indolic compounds were added to the wells as to obtain two-fold serial concentrations (0.50-128 mg/L of final concentrations). Plates were incubated at 37° C. in ambient air, or at 37° C. in 5% CO2 enriched atmosphere for fastidious species. […] Drug-free cultures served as growth controls. Cultures receiving gentamicin, ciprofloxacin or cefotaxime served as positive controls.

S. aureus ATCC 29213 = assay type: cell-based, Staphylococcus aureus; details: Staphylococcus aureus, ATCC29213, read after 18 hours, read-out: MIC
Procedure: as §1

[2] = tested on: S. aureus ATCC 33592 (MRSA); assay type: cell-based, Staphylococcus aureus; details: Staphylococcus aureus, read after 18 hours, read-out: MIC
Procedure: as §1

S. aureus ATCC 6538 = assay type: cell-based, Staphylococcus aureus; details: Staphylococcus aureus, ATCC6538, read after 18 hours, read-out: MIC
Procedure: as §1

S. aureus ATCC 9144 = assay type: cell-based, Staphylococcus aureus; details: Staphylococcus aureus, ATCC9144, read after 18 hours, read-out: MIC
Procedure: as §1

S. aureus CIP 103428 = assay type: cell-based, Staphylococcus aureus; details: Staphylococcus aureus, CIP103428, read after 18 hours, read-out: MIC
Procedure: as §1

[3] = tested on: S. aureus CIP 65.25 (MRSA); assay type: cell-based, Staphylococcus aureus; details: Staphylococcus aureus, read after 18 hours, read-out: MIC
Procedure: as §1

S. aureus CIP 65.6 = assay type: cell-based, Staphylococcus aureus; details: Staphylococcus aureus, CIP65, read after 18 hours, read-out: MIC
Procedure: as §1

S. aureus SA-1199B = assay type: cell-based, Staphylococcus aureus; details: Staphylococcus aureus, SA1199B, 18 h
Procedure: as §1

[4] = tested on: S. epidermidis ATCC 12228; assay type: cell-based, Staphylococcus epidermidis; details: Staphylococcus epidermidis, ATCC12228, read after 18 hours, read-out: MIC
Procedure: as §1

[5] = tested on: S. epidermidis CIP 103627; assay type: cell-based, Staphylococcus epidermidis; details: Staphylococcus epidermidis, CIP103627, read after 18 hours, read-out: MIC
Procedure: as §1

S. epidermidis CIP 81.55 = assay type: cell-based, Staphylococcus epidermidis; details: Staphylococcus epidermidis, CIP81, read after 18 hours, read-out: MIC
Procedure: as §1

[6] = tested on: Acinetobacter baumanii ATCC 19606; assay type: cell-based; details: Acinetobacter baumannii, ATCC19606, read after 18 hours
Procedure: as §1

[7] = tested on: Bacillus subtilis CIP 5262; assay type: cell-based; details: CIP5262, read after 18 hours, read-out: MIC
Procedure: as §1

E. faecalis ATCC 29212 = assay type: cell-based; details: Enterococcus faecalis, ATCC29212, read after 18 hours, read-out: MIC
Procedure: as §1

E. faecium CIP 54.32 = assay type: cell-based; details: Enterococcus faecium, CIP54, read after 18 hours, read-out: MIC
Procedure: as §1

[8] = tested on: Enterobacter cloacae ATCC 13047; assay type: cell-based; details: ATCC13047, read after 18 hours
Procedure: as §1

[9] = tested on: Escherichia coli ATCC 25922; assay type: cell-based; details: ATCC25922, read after 18 hours
Procedure: as §1

[10] = tested on: Haemophilus influenzae ATCC 49766; assay type: cell-based; details: ATCC49766; Haemophilus influenzae ATCC 49766; read after 18 hours; read-out: MIC
Procedure: as §1

[11] = tested on: Klebsiella pneumoniae ATCC 35657; assay type: cell-based; details: ATCC35657, read after 18 hours, read-out: MIC
Procedure: as §1

[12] = tested on: Listeria innocua CIP 80.11; assay type: cell-based; details: CIP80, read after 18 hours, read-out: MIC
Procedure: as §1

[13] = tested on: Pseudomonas aeruginosa CIP 5933; assay type: cell-based; details: CIP5933, read after 18 hours
Procedure: as §1

[14] = tested on: S. agalactiae (group B) ATCC 12400; assay type: cell-based; details: Streptococcus agalactiae, ATCC12400, read after 18 hours, read-out: MIC
Procedure: as §1

S. aureus ATCC 25923 = assay type: cell-based; details: Staphylococcus aureus, ATCC25923, read after 18 hours
Procedure: as §1

S. mitis CIP 103335 = assay type: cell-based; details: Streptococcus mitis, CIP103335, read after 18 hours, read-out: MIC
Procedure: as §1

S. pneumoniae ATCC 49619 = assay type: cell-based; details: Streptococcus pneumoniae, ATCC49619, read after 18 hours
Procedure: as §1

[15] = tested on: S. pyogenes (group A) CIP 104226; assay type: cell-based; details: Streptococcus pyogenes, CIP104226, read after 18 hours, read-out: MIC
Procedure: as §1

[16] = tested on: Serratia marcescens CIP 103551; assay type: cell-based; details: CIP103551, read after 18 hours
Procedure: as §1

S. pneumoniae ATCC 6303 = assay type: cell-based, Streptococcus pneumoniae; details: Streptococcus pneumoniae, ATCC6303, read after 18 hours, read-out: MIC
Procedure: as §1

SMILES | MIC [1] [µg/mL] | MIC (S. aureus ATCC 29213) [µg/mL] | MIC [2] [µg/mL] | MIC (S. aureus ATCC 6538) [µg/mL] | MIC (S. aureus ATCC 9144) [µg/mL] | MIC (S. aureus CIP 103428) [µg/mL] | MIC [3] [µg/mL] | MIC (S. aureus CIP 65.6) [µg/mL] | MIC (S. aureus SA-1199B) [µg/mL] | MIC [4] [µg/mL] | MIC [5] [µg/mL] | MIC (S. epidermidis CIP 81.55) [µg/mL] | MIC [6] [µg/mL] | MIC [7] [µg/mL] | MIC [8] [µg/mL] | MIC [9] [µg/mL] | MIC [11] [µg/mL] | MIC [13] [µg/mL] | MIC (S. aureus ATCC 25923) [µg/mL] | MIC [16] [µg/mL] | other results
CC(C)(C)OC(=O)NCC(NC(=O)C(=O)c1c[nH]c2ccccc12)c1c[nH]c2ccccc12 (centres unmarked) [Compound 2, tert-Butyl(2-(2-(1H-indol-3-yl)-2-oxoacetamido)-2-(1H-indol-3-yl)ethyl)carbamate] | > 128 | > 128 | > 128 | > 128 | > 128 | > 128 | > 128 | > 128 | > 128 | > 128 | > 128 | > 128 | > 128 | > 128 | > 128 | > 128 | > 128 | > 128 | > 128 | > 128 | MIC (E. faecalis ATCC 29212): > 128 µg/mL; MIC (E. faecium CIP 54.32): > 128 µg/mL; MIC [10]: > 128 µg/mL; MIC [12]: > 128 µg/mL; MIC [14]: > 128 µg/mL; MIC (S. mitis CIP 103335): > 128 µg/mL; MIC (S. pneumoniae ATCC 49619): > 128 µg/mL; MIC [15]: > 128 µg/mL; MIC (S. pneumoniae ATCC 6303): > 128 µg/mL
CC(C)(C)OC(=O)NCC(NC(=O)C(=O)c1c[nH]c2ccc(Br)cc12)c1c[nH]c2ccc(Br)cc12 (centres unmarked) [Compound 4, tert-Butyl(2-(5-bromo-1H-indol-3-yl)-2-(2-(5-bromo-1H-indol-3-yl)-2-oxoacetamido)ethyl) carbamate] | 0.8 (≈ 1.32 µM) | 0.8 (≈ 1.32 µM) | 0.8 (≈ 1.32 µM) | 0.8 (≈ 1.32 µM) | 0.8 (≈ 1.32 µM) | 1.6 (≈ 2.65 µM) | 1.6 (≈ 2.65 µM) | 0.8 (≈ 1.32 µM) | 1.6 (≈ 2.65 µM) | 0.8 (≈ 1.32 µM) | 1.6 (≈ 2.65 µM) | 1.6 (≈ 2.65 µM) | > 128 |  | > 128 | > 128 | > 128 | > 128 | 1.6 (≈ 2.65 µM) | > 128 | 
CC(NC(=O)C(=O)c1c[nH]c2ccc(Br)cc12)c1c[nH]c2ccc(Br)cc12 (centres unmarked) [Compound 5, 2-(5-Bromo-1H-indol-3-yl)-N-(1-(5-bromo-1H-indol-3-yl)ethyl)-2-oxoacetamide] | 1 (≈ 2.04 µM) | 1 (≈ 2.04 µM) | 1 (≈ 2.04 µM) | 1 (≈ 2.04 µM) | 1 (≈ 2.04 µM) | 1 (≈ 2.04 µM) | 1 (≈ 2.04 µM) | 2 (≈ 4.09 µM) | 2 (≈ 4.09 µM) | 2 (≈ 4.09 µM) | 2 (≈ 4.09 µM) | 2 (≈ 4.09 µM) | > 128 | 64 (≈ 131 µM) | > 128 | > 128 | > 128 | > 128 | 1 (≈ 2.04 µM) | > 128 | MIC (E. faecalis ATCC 29212): 128 µg/mL (≈ 262 µM); MIC (E. faecium CIP 54.32): 64 µg/mL (≈ 131 µM); MIC [10]: 32 µg/mL (≈ 65.4 µM); MIC [12]: 64 µg/mL (≈ 131 µM); MIC [14]: 64 µg/mL (≈ 131 µM); MIC (S. mitis CIP 103335): 64 µg/mL (≈ 131 µM); MIC (S. pneumoniae ATCC 49619): 32 µg/mL (≈ 65.4 µM); MIC [15]: 32 µg/mL (≈ 65.4 µM); MIC (S. pneumoniae ATCC 6303): 32 µg/mL (≈ 65.4 µM)
O=C(C(=O)N1CCCCC1c1c[nH]c2ccccc12)c1c[nH]c2ccccc12 (centres unmarked) [Compound 6a, 1-(2-(1H-Indol-3-yl)piperidin-1-yl)-2-(1H-indol-3-yl)ethane-1,2-dione] | > 128 | > 128 | > 128 | > 128 | > 128 | > 128 | > 128 | > 128 | > 128 | > 128 | > 128 | > 128 | > 128 | > 128 | > 128 | > 128 | > 128 | > 128 | > 128 | > 128 | MIC (E. faecalis ATCC 29212): > 128 µg/mL; MIC (E. faecium CIP 54.32): > 128 µg/mL; MIC [10]: > 128 µg/mL; MIC [12]: > 128 µg/mL; MIC [14]: > 128 µg/mL; MIC (S. mitis CIP 103335): > 128 µg/mL; MIC (S. pneumoniae ATCC 49619): > 128 µg/mL; MIC [15]: > 128 µg/mL; MIC (S. pneumoniae ATCC 6303): > 128 µg/mL
O=C(C(=O)N1CCOCC1c1c[nH]c2ccccc12)c1c[nH]c2ccccc12 (centres unmarked) [Compound 6b, 1-(3-(1H-Indol-3-yl)morpholino)-2-(1H-indol-3-yl)ethane-1,2-dione] | > 128 | > 128 | > 128 | > 128 | > 128 | > 128 | > 128 | > 128 | > 128 | > 128 | > 128 | > 128 | > 128 | > 128 | > 128 | > 128 | > 128 | > 128 | > 128 | > 128 | MIC (E. faecalis ATCC 29212): > 128 µg/mL; MIC (E. faecium CIP 54.32): > 128 µg/mL; MIC [10]: > 128 µg/mL; MIC [12]: > 128 µg/mL; MIC [14]: > 128 µg/mL; MIC (S. mitis CIP 103335): > 128 µg/mL; MIC (S. pneumoniae ATCC 49619): > 128 µg/mL; MIC [15]: > 128 µg/mL; MIC (S. pneumoniae ATCC 6303): > 128 µg/mL
CC(C)(C)OC(=O)N1CCN(C(=O)C(=O)c2c[nH]c3ccccc23)C(c2c[nH]c3ccccc23)C1 (centres unmarked) [Compound 6c, tert-Butyl 4-(2-(1H-indol-3-yl)-2-oxoacetyl)-3-(1H-indol-3-yl)piperazine-1-carboxylate] | > 128 | > 128 | > 128 | > 128 | > 128 | > 128 | > 128 | > 128 | > 128 | > 128 | > 128 | > 128 | > 128 | > 128 | > 128 | > 128 | > 128 | > 128 | > 128 | > 128 | MIC (E. faecalis ATCC 29212): > 128 µg/mL; MIC (E. faecium CIP 54.32): > 128 µg/mL; MIC [10]: > 128 µg/mL; MIC [12]: > 128 µg/mL; MIC [14]: > 128 µg/mL; MIC (S. mitis CIP 103335): > 128 µg/mL; MIC (S. pneumoniae ATCC 49619): > 128 µg/mL; MIC [15]: > 128 µg/mL; MIC (S. pneumoniae ATCC 6303): > 128 µg/mL
